The values that follow come from patent publication US9216991B2 (Ares Trading S.A., priority 2012, dated 2015).

Counter-ions that a name gives are not always drawn.

The target of the assay is T1, IRAK4 (Homo sapiens, UniProt Q9NWZ3).
T1 construct: His (N); TEV cleavage site (N)
T1 sequence (Q9NWZ3 1-460): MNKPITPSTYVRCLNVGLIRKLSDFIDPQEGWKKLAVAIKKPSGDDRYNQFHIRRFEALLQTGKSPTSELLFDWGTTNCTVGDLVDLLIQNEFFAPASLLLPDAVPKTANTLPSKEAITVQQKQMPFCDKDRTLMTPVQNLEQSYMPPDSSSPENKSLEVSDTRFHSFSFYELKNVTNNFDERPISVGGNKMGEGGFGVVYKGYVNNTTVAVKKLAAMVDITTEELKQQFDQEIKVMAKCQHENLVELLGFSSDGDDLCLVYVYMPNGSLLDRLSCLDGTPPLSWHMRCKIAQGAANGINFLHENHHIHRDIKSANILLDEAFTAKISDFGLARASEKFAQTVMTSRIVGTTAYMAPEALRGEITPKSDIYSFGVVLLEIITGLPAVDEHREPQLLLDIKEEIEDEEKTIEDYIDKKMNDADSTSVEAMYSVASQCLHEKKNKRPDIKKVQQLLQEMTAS
Kind of assay: IRAK4 Enzymatic Assay. To be noted: His-TEV-IRAK4 20 ng/well, ATP 2 μM, STK1-biotin peptide 300 nM, 3 hours at 30° C., FlashPlate radioactivity. Format: biochemical. In short, it runs like this:
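Radiometric FlashPlate readout: biotin-STK1 substrate (300 nM) captured on streptavidin after EDTA stop and washes. Reaction used His-TEV-IRAK4 (20 ng/well), 2 μM [^33P]-spiked ATP and compound (1 nM-20 μM), incubated 3 h at 30 °C in 50 mM HEPES pH 7.0, 10 mM MgCl2, 5 mM MnCl2, 2 mM DTT.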
By IC50 is commonly meant the concentration that gives 50% inhibition. Consider `Cn1cc(-c2cccc(-c3ncc(-c4cnn(CC5CCOC5)c4)cn3)c2)cn1` (centres unmarked) [Example 45, 2-[3-(1-Methyl-1H-pyrazol-4-yl)-phenyl]-5-[1-(tetrahydro-furan-3-ylmethyl)-1H-pyrazol-4-yl]-pyrimidine], for which the IC50 was 100 to 1000 nM.

In the case of `CN(C)C[C@H]1CC[C@H](n2cc(-c3cnc(-c4cccc(-c5cnn(C)c5)c4)nc3)cn2)CC1` [Example 232, Trans-dimethyl-[4-(4-{2-[3-(1-methyl-1H-pyrazol-4-yl)-phenyl]-pyrimidin-5-yl}-pyrazol-1-yl)-cyclohexylmethyl]-amine], the half-maximal inhibitory concentration (IC50) was less than 100 nM.

With `Cn1cc(-c2cccc(-c3ncc(-c4cnn([C@H]5CCC[C@@H](N6CCOC6=O)C5)c4)cn3)c2)cn1` (relative stereo) [Example 257, 3-[cis-3-(4-{2-[3-(1-Methyl-1H-pyrazol-4-yl)-phenyl]-pyrimidin-5-yl}-pyrazol-1-yl)-cyclohexyl]-oxazolidin-2-one], the IC50 was less than 100 nM.

As to `Cn1cc(-c2cccc(-c3ncc(-c4cnn(C5CCN(C6CCCOC6)CC5)c4)cn3)c2)cn1` (centres unmarked) [Example 270, 2-[3-(1-Methyl-1H-pyrazol-4-yl)-phenyl]-5-{1-[1-(tetrahydro-pyran-3-yl)-piperidin-4-yl]-1H-pyrazol-4-yl}-pyrimidine], the IC50 was less than 100 nM.

As for `Cn1cc(-c2cccc(-c3ncc(-c4cnn(CCC(=O)N5CCOCC5)c4)cn3)c2)cn1` [Example 83, 3-(4-{2-[3-(1-Methyl-1H-pyrazol-4-yl)-phenyl]-pyrimidin-5-yl}-pyrazol-1-yl)-1-morpholin-4-yl-propan-1-one], the IC50 was in the range of 1000 to 5000 nM.

For the molecule `CN1[C@@H]2CCC[C@H]1C[C@H](n1cc(-c3cnc(-c4cccc(-c5cnn(C)c5)c4)nc3)cn1)C2` [Example 142, Exo-9-Methyl-3-(4-{2-[3-(1-methyl-1H-pyrazol-4-yl)-phenyl]-pyrimidin-5-yl}-pyrazol-1-yl)-9-aza-bicyclo[3.3.1]nonane], the IC50 was 100 to 1000 nM.

For the molecule `CC(=O)N1CC[C@H](n2cc(-c3cnc(-c4cccc(-c5cnn(C)c5)c4)nc3)cn2)C1` [Example 126, 1-[(S)-3-(4-{2-[3-(1-Methyl-1H-pyrazol-4-yl)-phenyl]-pyrimidin-5-yl}-pyrazol-1-yl)-pyrrolidin-1-yl]-ethanone], the IC50 lay within 100 to 1000 nM.

On to `Cn1cc(-c2cccc(-c3ncc(-c4cnn(CC(=O)N5C6CCC5CC(O)C6)c4)cn3)c2)cn1` (centres unmarked) [Example 128, 1-(3-Hydroxy-8-aza-bicyclo[3.2.1]oct-8-yl)-2-(4-{2-[3-(1-methyl-1H-pyrazol-4-yl)-phenyl]-pyrimidin-5-yl}-pyrazol-1-yl)-ethanone], for which the IC50 was 100 to 1000 nM.

As to `CNC(=O)[C@H]1CC[C@H](n2cc(-c3cnc(-c4cccc(-c5cnn(C)c5)c4)nc3)cn2)CC1` [Example 143, Trans-4-(4-{2-[3-(1-Methyl-1H-pyrazol-4-yl)-phenyl]-pyrimidin-5-yl}-pyrazol-1-yl)-cyclohexanecarboxylic acid methylamide], the IC50 is less than 100 nM.

With `COCCN(C)C(=O)[C@H]1CC[C@H](n2cc(-c3cnc(-c4cccc(-c5cnn(C)c5)c4)nc3)cn2)CC1` [Example 152, Trans-4-(4-{2-[3-(1-Methyl-1H-pyrazol-4-yl)-phenyl]-pyrimidin-5-yl}-pyrazol-1-yl)-cyclohexanecarboxylic acid (2-methoxy-ethyl)-methyl-amide], the IC50 was less than 100 nM.

Take `Cc1cc(-c2cccc(-c3ncc(-c4cnn([C@H]5CC[C@H](CO)CC5)c4)cn3)c2)cnn1` [Example 256, Trans-[4-(4-{2-[3-(6-Methyl-pyridazin-4-yl)-phenyl]-pyrimidin-5-yl}-pyrazol-1-yl)-cyclohexyl]-methanol]: the IC50 was less than 100 nM.

`c1cc(-c2cn[nH]c2)cc(-c2ncc(-c3cnn(C4CCNCC4)c3)cn2)c1` [Example 18, 5-(1-Piperidin-4-yl-1H-pyrazol-4-yl)-2-[3-(1H-pyrazol-4-yl)-phenyl]-pyrimidine hydrochloride]: the IC50 is less than 100 nM.

Regarding `Cc1cc(-c2cccc(-c3ncc(-c4cnn([C@H]5CCCS(=O)(=O)C5)c4)cn3)c2)cnn1` (single isomer, unassigned) [Example 240], the IC50 was in the range of 100 to 1000 nM.

Consider `CN(C)C(=O)CCn1cc(-c2cnc(-c3cccc(-c4cnn(C)c4)c3)nc2)cn1` [Example 85, N,N-Dimethyl-3-(4-{2-[3-(1-methyl-1H-pyrazol-4-yl)-phenyl]-pyrimidin-5-yl}-pyrazol-1-yl)-propionamide], for which the IC50 fell in the range of 100 to 1000 nM.

On to `Cn1cc(-c2cccc(-c3ncc(-c4cnn(C5CCN(C(=O)CO)CC5)c4)cn3)c2)cn1` [Example 106, 2-Hydroxy-1-[4-(4-{2-[3-(1-methyl-1H-pyrazol-4-yl)-phenyl]-pyrimidin-5-yl}-pyrazol-1-yl)-piperidin-1-yl]-ethanone], for which the IC50 was in the range of 100 to 1000 nM.

Consider `CN(C)C(=O)Cn1cc(-c2cnc(-c3cccc(-c4cnn(C)c4)c3)nc2)cn1` [Example 38, N,N-Dimethyl-2-(4-{2-[3-(1-methyl-1H-pyrazol-4-yl)-phenyl]-pyrimidin-5-yl}-pyrazol-1-yl)-acetamide], for which the IC50 lay in the range of 100 to 1000 nM.

With `Cn1cc(-c2cccc(-c3ncc(-c4cnn([C@H]5CC[C@H](C(=O)N6CCOCC6)CC5)c4)cn3)c2)cn1` [Example 162, Trans-[4-(4-{2-[3-(1-Methyl-1H-pyrazol-4-yl)-phenyl]-pyrimidin-5-yl}-pyrazol-1-yl)-cyclohexyl]-morpholin-4-yl-methanone], the IC50 is less than 100 nM.

As for `O=C(Cn1cc(-c2cnc(-c3cccc(-c4cnco4)c3)nc2)cn1)N1CCOCC1` [Example 78, 1-Morpholin-4-yl-2-{4-[2-(3-oxazol-5-yl-phenyl)-pyrimidin-5-yl]-pyrazol-1-yl}-ethanone], the IC50 fell in the range of 100 to 1000 nM.

Take `FCC(CF)n1cc(-c2cccc(-c3ncc(-c4cnn(C5CCNCC5)c4)cn3)c2)cn1` [Example 16, 2-{3-[1-(2-Fluoro-1-fluoromethyl-ethyl)-1H-pyrazol-4-yl]-phenyl}-5-(1-piperidin-4-yl-1H-pyrazol-4-yl)-pyrimidine hydrochloride]: the IC50 was 100 to 1000 nM.

With `Cn1cc(-c2cccc(-c3ncc(-c4cnn(C5CCC[C@H](S(C)(=O)=O)C5)c4)cn3)c2)cn1` (single isomer, unassigned) [Example 279, 5-[1-(Cis-3-Methanesulfonyl-cyclohexyl)-1H-pyrazol-4-yl]-2-[3-(1-methyl-1H-pyrazol-4-yl)-phenyl]-pyrimidine], the IC50 was less than 100 nM.

For the molecule `CN1C[C@]2(CC[C@@H](n3cc(-c4cnc(-c5cccc(-c6cnn(C)c6)c5)nc4)cn3)CC2)CC1=O` [Example 262, cis-2-Methyl-8-(4-{2-[3-(1-methyl-1H-pyrazol-4-yl)-phenyl]-pyrimidin-5-yl}-pyrazol-1-yl)-2-aza-spiro[4.5]decan-3-one], the IC50 is less than 100 nM.

For `Cn1cc(-c2cccc(-c3ncc(-c4cnn(C5CCSC5)c4)cn3)c2)cn1` (centres unmarked) [Example 216, 2-[3-(1-Methyl-1H-pyrazol-4-yl)-phenyl]-5-[1-(tetrahydro-thiophen-3-yl)-1H-pyrazol-4-yl]-pyrimidine], the IC50 lay in the range of 100 to 1000 nM.

Turning to `CN(C)C(=O)[C@H]1CC[C@H](n2cc(-c3cnc(-c4cccc(-c5cnn(C)c5)c4)nc3)cn2)CC1` [Example 134, Trans-4-(4-{2-[3-(1-Methyl-1H-pyrazol-4-yl)-phenyl]-pyrimidin-5-yl}-pyrazol-1-yl)-cyclohexanecarboxylic acid dimethylamide], the IC50 was less than 100 nM.
